Reference: patent US7345080B2, “Substituted 4-pyrazolyl pyrazonlines used for pest control” (Bayer CropScience AG, priority 2002, dated 2008)

Key:
[1] = logP determination by HPLC (reversed-phase C 18), EEC Directive 79/831 Annex V.A8; assay type: physicochemical; details: acidic range, 0.1% aqueous phosphoric acid/acetonitrile; for logP (pH 2): reversed-phase C 18, 43° C.; for chromatographic logP: reversed-phase C18 HPLC column, pH 2, reversed-phase C 18, 43° C.
Method: The logP values given in the Tables and Preparation Examples above are determined in accordance with EEC Directive 79/831 Annex V.A8 by HPLC (High Performance Liquid Chromatography) using a reversed-phase column (C 18). Temperature: 43° C.
The determination is carried out in the acidic range at pH 2.3 using the-mobile phases 0.1% aqueous phosphoric acid and acetonitrile; linear gradient from 10% acetonitrile to 90% acetonitrile.

[2] = test system: larvae of the mustard beetle (Phaedon cochleariae); test: Phaedon larvae test (dipped cabbage leaves); assay type: in vivo; details: 500 ppm active compound, kill after 7 d, cabbage leaves (Brassica oleracea)
Method: (§1) • Solvent: 7 parts by weight of dimethylformamide • Emulsifier: 2 parts by weight of alkylaryl polyglycol ether
(§2) To produce a suitable preparation of active compound, 1 part by weight of active compound is mixed with the stated amount of solvent and emulsifier, and the concentrate is diluted with emulsifier-containing water to the desired concentration.
After the desired period of time, the kill in % is determined. 100% means that all beetle larvae have been killed; 0% means that none of the beetle larvae have been killed.

[3] = test system: caterpillars of the army worm (Spodoptera frugiperda); test: Spodoptera frugiperda test (dipped cabbage leaves); assay type: in vivo; details: for Efficacy in % after 7d: 500 ppm active compound, kill after 7 d, cabbage leaves (Brassica oleracea); for kill: active compound concentration of 500 ppm, after 7 days
Method: Spodoptera frugiperda Test
as §1, §2
Cabbage leaves (Brassica oleracea) are treated by being dipped into the preparation of active compound of the desired concentration and are populated with caterpillars of the army worm (Spodoptera frugiperda) while the leaves are still moist.
After the desired period of time, the kill in % is determined. 100% means that all caterpillars have been killed; 0% means that none of the caterpillars have been killed.

Row | Structure (SMILES) | logP (pH 2) [1] | chromatographic logP [1] | Efficacy in % after 7d [2] [%] | Efficacy in % after 7d [3] [%] | kill [3] [%]
1 | CC(C)(C)n1nnc(-c2cnn(C3CN(C(=O)Nc4ccc(OC(F)(F)F)cc4)N=C3c3ccc(Cl)cc3)c2)n1 (centres unmarked) [Example 1, N-(4-trifluoromethoxy)-3-(4-chlorophenyl)-4-[4-(2-tert-butyltetrazol-5-yl)pyrazol-1-yl]-4,5-dihydro-1-pyrazolecarboxanilide] | 4.63 |  |  |  | 
2 | CC(C)(C)n1nnc(-c2cnn(C3CNN=C3c3ccc(Cl)cc3)c2)n1 (centres unmarked) [3-(4-chlorophenyl)-4-[4-(2-tert-butyltetrazol-5-yl)pyrazol-1-yl]4,5-dihydro-1H-pyrazole] |  | 2.91 |  |  | 
3 | Cn1nnc(-c2cnn(C3CN(C(=O)N(CC#N)c4ccc(OC(F)(F)F)cc4)N=C3c3ccc(Cl)cc3)c2)n1 (centres unmarked) [Example 6] |  | 3.51 | 100 | 100 | 
4 | CC(C)(C)n1nnc(-c2cnn(C3CN(C(=O)N(CC#N)c4ccc(OC(F)(F)F)cc4)N=C3c3ccc(Cl)cc3)c2)n1 (centres unmarked) [Example 2, N-cyanomethyl-N(4-trifluoromethoxy)-3-(4-chlorophenyl)-4-[4-(2-tert-butyltetrazol-5-yl)pyrazol-1-yl]-4,5-dihydro-1-pyrazolecarboxanilide] | 4.40 |  | 100 | 100 | 100
5 | CC(C)(C)n1nnc(-c2cnn(CC(=O)c3ccc(Cl)cc3)c2)n1 [2-[4-(2-tert-butyltetrazol-5-yl)pyrazol-1-yl]-4′-chloroacetophenone] |  | 2.96 |  |  | 
6 | O=C(Cn1cc(-c2nn[nH]n2)cn1)c1ccc(Cl)cc1 [2-[4-(tetrazol-5-yl)pyrazol-1-yl]-4′-chloroacetophenone] |  | 1.6 |  |  | 
7 | Cn1nnc(-c2cnn(C3CN(C(=O)Nc4ccc(OC(F)(F)F)cc4)N=C3c3ccc(Cl)cc3)c2)n1 (centres unmarked) [Example 4] |  | 3.75 |  | 100 | 100
